# According to patent US20140378551A1, “Composition for the Prophylactic Treatment of Neuropathic Pain” (Universite d'Auvergne, priority 2011, published 2014):
# Structures can show the parent of a compound that is named as a salt.
# Tests used:
# [1] = system: Tyr^1472 residue of the NR2B sub-unit of the NMDA receptor; test: Chronic intrathecal treatment, phosphorylation of Tyr1472 residue in diabetes pain context; format: in vivo; settings: chronic treatment administered intrathecally
# Text: (§1) It is relatively better tolerated by patients.
# [2] = system: mechanical hyperalgesia induced by diabetes; test: Chronic intrathecal treatment, mechanical hyperalgesia induced by diabetes; format: in vivo; settings: chronic treatment administered intrathecally
# Text: as §1
# [3] = doses of 5 to 30 mg memantine hydrochloride (Sang et al., 2002); cited from earlier work
SMILES,phosphorylation of the Tyr1472 residue [1],mechanical hyperalgesia induced by diabetes [2],tolerance by patients [3]
"CC(C)(C)n1nc(-c2ccc(Cl)cc2)c2c(N)ncnc21 [PP2, 4-amino-5-(4-chlorophenyl)-7-(dimethylethyl) pyrazolo [3,4-d] pyrimidine]",reduces phosphorylation of the Tyr^1472 residue,abolishes the mechanical hyperalgesia induced by diabetes,
CC12CC3CC(C)(C1)CC(N)(C3)C2 [memantine hydrochloride],,,well supported and tolerated by the patients
